The METLIN SMRT retention time set (Domingo-Almenara et al. 2019)

Assay: gradient 5% acetonitrile 3 min, to 50% in 2 min, to 85% in 15 min, held 3 min, 100 µL/min
Settings: column: Zorbax Extend-C18 2.1 x 50 mm; eluents: water / acetonitrile, 0.1% formic acid
Method in brief: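 Mixtures of ~100 pure standards were chromatographed on a Zorbax Extend-C18 column (2.1 × 50 mm, 1.8 μm) at 100 μL/min using water and acetonitrile, each with 0.1% formic acid. Detection used a quadrupole time-of-flight mass spectrometer in positive and negative ionization mode, and data collection spanned 3 months. Retention time was obtained from adduct peaks picked computationally and each checked manually.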

SMILES | RP-LC retention time [s]
Cc1ccc(C(=O)N2CCC3(CC2)c2nccn2-c2ccccc2CN3CC(C)C)cc1F | 786
COc1ccc(SCCc2ccncc2)cc1 | 662
CN(CC1CCOCC1)C(=O)Nc1ccccc1Br | 768
Cc1ccc(CNS(=O)(=O)c2ccc(-c3c(C)noc3C)cc2)o1 | 893
CCOCC(=O)Nc1c(C)nc2ccc(Cl)cn2c1=O | 583
Cc1ccc(-c2nc3cnccn3c2Nc2c(C)cccc2C)cc1 | 947
COc1ccccc1-c1csc(NC(=O)c2sc(C)nc2C)n1 | 900
COc1cccc(-c2cc(NCc3ccc4c(c3)OCO4)nc(N)n2)c1 | 768
Cc1scc2nc(C(=O)NC(C)C)nc(N(C)C)c12 | 581
Cc1cccc(C)c1NC(=O)CN1CCCC1 | 633
COc1ccccc1-c1noc(-c2cn(C)c3ccc(F)cc3c2=O)n1 | 744
CCOC(=O)c1c(C)[nH]c(C(=O)N2CCCC(C(=O)NCCN3CCCCC3)C2)c1C (stereo not drawn) | 620
Cc1nnc(NC(=O)c2cccc(C(F)(F)F)c2)s1 | 749
CNc1nc(SC)n(C)c(=O)c1N=O | 667
Cc1ccc(C)c(-c2csc(NC(=O)c3cccs3)n2)c1 | 1040
O=c1c2cc3c(cc2nc(SCc2nc(-c4ccc(Cl)cc4)no2)n1CC1CCCO1)OCO3 (stereo not drawn) | 1230
COCCCNC(=O)c1nccnc1NC(=O)c1ccc(C)cc1 | 791
CCN(CC)C(=O)Cn1ccc(NC(C)=O)nc1=O | 602
O=C1/C(=C/c2ccsc2)CC/C1=C\c1cccs1 | 1280
CCSc1ccc(-n2ncc(C(=O)NC3CC3)c2C)nn1 | 722
CCOc1cccc(-c2noc(-c3nn(-c4cccc(F)c4)ccc3=O)n2)c1 | 978
O=C(Cc1csc(NS(=O)(=O)c2ccc(Cl)cc2)n1)NCc1cccs1 | 725

SMILES | RP-LC retention time [s]
CN(C)c1ccc(C(=O)NC2CCN(c3ccc(F)cc3)C2=O)cc1 (stereo not drawn) | 778
N#CCNC(=O)C1CC(=O)N(CCc2c[nH]c3ccc(F)cc23)C1 (stereo not drawn) | 661
O=C(O)c1cn(-c2ccc(F)c(Cl)c2)nn1 | 727
Cc1noc([C@@H]2CN(S(=O)(=O)c3c(C)noc3C)C[C@H]2C(N)=O)n1 | 667
CC(C)N1CCCn2cc(S(=O)(=O)Nc3ccc(F)cc3)cc2C1=O | 754
CCCCCCOc1ccccc1C(N)=O | 1040
CC(=O)N1CCc2cc(N3CC(C(=O)Nc4ccc(F)c(C)c4)CC3=O)ccc21 (stereo not drawn) | 740
Nc1ccc2c(c1)nnn2-c1ccccc1 | 708
Cc1cccc(N(C)C(=O)CCS(=O)(=O)c2ccc3c(c2)CC(C)N3C(=O)C2CC2)c1 (stereo not drawn) | 807
NC(=O)c1cc(-c2ccc(F)cc2)n[nH]1 | 645
COc1ccc(/C=C/c2nc(-c3ccc4oc(C)nc4c3)no2)cc1 | 1150
Cc1c(Cl)cccc1Nc1c(-c2cccc(Cl)c2)nc2cnccn12 | 1140
COC(=O)c1sccc1NC(=O)N1CCCC1c1nc(-c2cccc(Cl)c2)no1 (stereo not drawn) | 1220
CCNC(=O)N1CCCC1c1nc(-c2ccc(OC)cc2)no1 (stereo not drawn) | 761
Cc1cc(C)c(C(=O)N2CCC(CC(=O)NCCC(C)C)CC2)[nH]1 | 764
Cc1cc(C2CCCN2C(=O)Nc2ccc(C)c(C)c2)on1 (stereo not drawn) | 728
Cc1nc(-n2c(C)ccc2C)sc1C(=O)NC(C)C | 954
O=C(Nc1ccc(F)cc1Cl)C1CCc2sc(C(=O)N3CCOCC3)cc2C1 (stereo not drawn) | 748
O=C(Nc1ccc(Cl)c(Cl)c1)Nc1nc(-c2ccccc2)cs1 | 1220
Cc1cccc(/C=C/c2ccccc2)n1 | 664
CCOC(=O)c1c(C)[nH]c(C(=O)N2CCC(CC(=O)NCc3ccc(OC)cc3)CC2)c1C | 694

The remaining lines, values ahead:

RP-LC retention time [s] | SMILES
685 | CCCn1cc(-c2ccncc2)cc1C(=O)NC1CCCCC1
670 | COCCNC(=O)c1nc(-c2ccnc(N3CCC(C)CC3)c2)no1
688 | COc1ccc(C2C(C(=O)O)c3ccccc3C(=O)N2C)cc1 (stereo not drawn)
1370 | Cc1ccc2c(Nc3ccc(S(N)(=O)=O)cc3)c(C(=O)N3CCSCC3)cnc2n1
700 | Cc1noc(C2CN(C(=O)Nc3ccccc3C)CC23CCOCC3)n1 (stereo not drawn)
679 | O=C(Cn1nc2n(c1=O)CCCC2)N1CCN(c2ccccc2F)CC1
667 | CC1CCc2onc(C(=O)N3CCN(Cc4ccc5c(c4)OCO5)CC3)c2C1 (stereo not drawn)
718 | COC(=O)C(C)NC(=O)NC1CCN(C2=NS(=O)(=O)C(c3ccccc3)=C2C)CC1 (stereo not drawn)
852 | Cc1cc(C)cc(C(=O)N2CCC3(CC2)NC(=O)c2cc(C)ccc2N3C)c1
745 | O=C(Cc1ccsc1)Nc1cccn2c(C3CCC3)nnc12
614 | CCc1nn(CC(=O)N2CCC(C(N)=O)CC2)c(=O)c2cc3sccc3n12
691 | O=C(c1ccccc1Sc1nccnc1Oc1ccccc1)N1CCN(c2ccccn2)CC1
560 | CCc1nnc2c(=O)n(CC(=O)N3CCN(c4ccccn4)CC3)c3cccnc3n12
596 | Cn1ccc2cc(CCC(=O)NCc3ccncc3)ccc21
702 | O=C(NCc1ccccc1)Nc1cccn2ncnc12
593 | CCN1CCN(C(=O)C2CC(c3ccccc3)=NO2)CC1 (stereo not drawn)
740 | CCn1nccc1C(=O)NCCn1c(=O)n(Cc2ccccc2)c2cccnc21
656 | Cc1c(C(=O)NC2CCS(=O)(=O)C2)nnn1-c1ccccc1F (stereo not drawn)
888 | Cc1nc(N2CCN(c3ccc(F)cc3)CC2)ncc1C(=O)O
672 | CN1CCN(C(=O)C2CCN(c3nc4ccc(-c5ccccc5)nc4s3)CC2)CC1
574 | Cc1nn(-c2ccc(C(=O)N3CCN(c4ccccn4)CC3)cc2)c2c1C(=O)CCC2
715 | COC(=O)c1ncn2c1C(=O)N(c1ccccc1C)C(C)(C(=O)NCc1ccccc1)C2 (stereo not drawn)
853 | CNC(=O)c1cn(CC(C)C)c(=O)c2ccccc12
730 | O=C(Cn1cnc2ccccc2c1=O)N1CCCC(c2nnc(-c3ccccc3F)s2)C1 (stereo not drawn)
750 | O=C(NCc1cccnc1)C1CCN(Cc2cc3ccccc3n2Cc2cccc(Cl)c2)CC1

RP-LC retention time [s] | SMILES
717 | COc1ccc(NC(=O)Cn2nc3nc(N4CCCC(C)C4)ccn3c2=O)cc1Cl (stereo not drawn)
627 | Cc1ccc(S(=O)(=O)N2CCC(CCC(=O)N3CCN(C)CC3)CC2)cc1
891 | COc1ccc(CCNC(=O)C2CCCN(S(=O)(=O)c3ccc(OC)c(C)c3)C2)cc1 (stereo not drawn)
721 | CCN1C(=O)c2cccnc2Sc2cc(CNC(=O)c3cccnc3SC)ccc21
819 | Cc1ccc(CNC(=O)c2ccc3ccnc(N4CCN(c5ccccc5)CC4)c3c2)o1
795 | O=C(C1CC1)N1CCc2sc(S(=O)(=O)NCc3ccccc3)cc2C1
718 | CCN1CCc2c(sc(-n3cccc3)c2CNC(=O)Nc2cc(C)ccc2OC)C1
743 | CCc1nnc(-c2cccn2CC(=O)NCc2ccc3c(c2)OCO3)o1
888 | CCCNC(=O)N1CCC2(CC1)Nc1cc(F)ccc1-n1cccc12
1190 | CC1CCCCN1S(=O)(=O)c1ccc(C(=O)Nc2nc3c(s2)Cc2ccccc2-3)cc1 (stereo not drawn)
834 | CCC(=O)N1CCc2c(sc3ncnc(NCCc4ccccc4)c23)C1
1120 | CC1=NS(=O)(=O)N(Cc2ccccc2)C=C1C(=O)OCc1nc(-c2ccccc2)no1
1110 | Cc1cc(C)cc(NC(=O)Nc2nccn(-c3cccc(Cl)c3)c2=O)c1
568 | CCn1c(COc2cccc3cccnc23)nnc1SC(F)F
1220 | CCOc1nc2ccccc2nc1N1CCCC(C(=O)Nc2ccc(F)cc2F)C1 (stereo not drawn)
716 | CN(C)c1ncccc1C(=O)Nc1ccccc1Cl
752 | CC(C)CNC(=O)c1ccc2c(c1)Sc1ncccc1C(=O)N2C1CC1
978 | Cc1cc(=O)n(CC(=O)Nc2ccc(Br)cc2F)c(N2CCN(c3ccccc3)CC2)n1
618 | Cc1cc(C)c2c(N3CCSCC3)nc(C(=O)NC(C)c3ccccn3)nc2n1 (stereo not drawn)
618 | CCCN1CCN(S(=O)(=O)c2cc(-c3nnc(C(C)C)o3)co2)CC1
930 | CCCCOc1ccc(CNC(=O)C2CCCN(C(=O)c3[nH]c(C)c(C(=O)OC)c3C)C2)cc1 (stereo not drawn)
1040 | CC(C)n1c2ccccc2c2nnc(SCC(=O)Nc3nc(-c4ccccc4)cs3)nc21
892 | Cc1cc(-n2c(C)nc3ccccc3c2=O)ccc1NC(=O)CCC1CCCC1
860 | CCS(=O)(=O)N1CC(=O)N(c2ccc(C)c(C)c2)C(C)(C(=O)NCc2ccccc2)C1 (stereo not drawn)
595 | O=c1ccc(-c2ccc(S(=O)(=O)N3CCN(c4ccccn4)CC3)s2)n[nH]1
